Like-named read-outs stand apart in the source and are kept apart here.
Target: T1, human Cav3.2 T-type Ca2+ channel (Homo sapiens, UniProt O95180)
T1 construct: expressed in transfected cells; host or cells: KJMGER8 cells (Namalwa cell-derived cell line)
Experiment: Inhibitory effect for intracellular calcium response via Cav3.2 T-type Ca2+ channels (FLIPR Calcium 3 Assay Kit)
Format: cell-based

[1] = human Cav3.2-expressing KJMGER8 cells (Namalwa-derived), calcium response induced by 5 mmol/L CaCl2, 3 μmol/L mibefradil as reference, read-out: IC50 for the human Cav3.2 T-type Ca2+ current

T1 sequence (O95180 whole entry): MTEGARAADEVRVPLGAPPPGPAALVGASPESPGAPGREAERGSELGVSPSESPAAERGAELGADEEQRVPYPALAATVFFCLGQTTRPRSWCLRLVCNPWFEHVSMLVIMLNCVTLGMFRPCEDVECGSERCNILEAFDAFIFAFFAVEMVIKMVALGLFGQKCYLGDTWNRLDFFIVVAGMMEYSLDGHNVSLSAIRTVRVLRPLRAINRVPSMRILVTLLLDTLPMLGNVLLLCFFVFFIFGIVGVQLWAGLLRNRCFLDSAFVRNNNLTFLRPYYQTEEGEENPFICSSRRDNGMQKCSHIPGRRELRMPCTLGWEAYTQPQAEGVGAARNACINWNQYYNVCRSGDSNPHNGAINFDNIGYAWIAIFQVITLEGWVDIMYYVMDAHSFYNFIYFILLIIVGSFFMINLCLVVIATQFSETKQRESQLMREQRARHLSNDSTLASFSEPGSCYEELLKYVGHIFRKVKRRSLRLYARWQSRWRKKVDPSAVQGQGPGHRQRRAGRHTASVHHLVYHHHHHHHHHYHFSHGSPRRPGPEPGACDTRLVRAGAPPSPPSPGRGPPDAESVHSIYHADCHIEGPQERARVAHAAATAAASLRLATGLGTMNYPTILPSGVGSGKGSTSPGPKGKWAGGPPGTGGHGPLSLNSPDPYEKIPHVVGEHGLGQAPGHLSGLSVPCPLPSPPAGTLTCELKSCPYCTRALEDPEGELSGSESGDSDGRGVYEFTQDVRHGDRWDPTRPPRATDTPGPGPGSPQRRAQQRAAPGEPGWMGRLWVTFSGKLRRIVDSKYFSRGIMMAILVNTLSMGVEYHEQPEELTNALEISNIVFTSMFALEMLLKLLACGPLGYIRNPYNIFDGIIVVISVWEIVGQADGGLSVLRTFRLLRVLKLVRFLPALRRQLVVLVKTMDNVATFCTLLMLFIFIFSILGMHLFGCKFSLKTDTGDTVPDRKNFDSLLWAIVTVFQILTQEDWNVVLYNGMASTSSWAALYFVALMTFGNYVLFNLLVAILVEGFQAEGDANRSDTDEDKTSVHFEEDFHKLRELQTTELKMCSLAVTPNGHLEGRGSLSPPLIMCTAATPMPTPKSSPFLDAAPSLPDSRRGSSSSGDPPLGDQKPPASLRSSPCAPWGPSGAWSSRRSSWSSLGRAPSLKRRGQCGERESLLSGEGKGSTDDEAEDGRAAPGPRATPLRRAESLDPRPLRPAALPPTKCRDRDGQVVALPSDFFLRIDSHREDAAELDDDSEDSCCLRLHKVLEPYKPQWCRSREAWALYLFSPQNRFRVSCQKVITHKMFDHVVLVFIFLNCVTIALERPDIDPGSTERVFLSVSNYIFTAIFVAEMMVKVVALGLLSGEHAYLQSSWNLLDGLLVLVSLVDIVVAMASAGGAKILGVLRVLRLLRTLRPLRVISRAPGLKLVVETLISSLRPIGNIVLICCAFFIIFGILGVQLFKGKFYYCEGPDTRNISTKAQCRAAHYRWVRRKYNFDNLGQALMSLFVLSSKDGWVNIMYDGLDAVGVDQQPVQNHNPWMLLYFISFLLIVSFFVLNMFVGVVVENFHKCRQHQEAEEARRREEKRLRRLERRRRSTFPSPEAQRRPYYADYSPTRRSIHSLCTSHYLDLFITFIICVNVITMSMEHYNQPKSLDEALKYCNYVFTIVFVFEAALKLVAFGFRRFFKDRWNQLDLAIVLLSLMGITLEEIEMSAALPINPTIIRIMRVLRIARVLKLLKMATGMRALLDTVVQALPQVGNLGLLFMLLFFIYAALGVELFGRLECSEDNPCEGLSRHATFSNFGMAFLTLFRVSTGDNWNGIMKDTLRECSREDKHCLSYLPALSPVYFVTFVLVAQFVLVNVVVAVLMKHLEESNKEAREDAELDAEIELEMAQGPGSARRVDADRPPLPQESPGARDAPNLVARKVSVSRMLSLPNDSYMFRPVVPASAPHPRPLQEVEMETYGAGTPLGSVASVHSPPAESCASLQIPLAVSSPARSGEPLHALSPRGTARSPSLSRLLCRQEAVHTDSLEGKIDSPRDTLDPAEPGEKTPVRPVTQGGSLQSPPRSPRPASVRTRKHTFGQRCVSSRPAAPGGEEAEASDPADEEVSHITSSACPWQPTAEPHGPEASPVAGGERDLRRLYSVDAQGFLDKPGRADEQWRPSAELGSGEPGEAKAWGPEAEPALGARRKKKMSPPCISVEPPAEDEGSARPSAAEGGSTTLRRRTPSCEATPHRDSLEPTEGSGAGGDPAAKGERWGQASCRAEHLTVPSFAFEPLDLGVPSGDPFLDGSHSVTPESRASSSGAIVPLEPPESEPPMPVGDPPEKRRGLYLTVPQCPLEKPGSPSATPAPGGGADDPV

| Structure (SMILES) | IC50 | IC50 [1] |
| --- | --- | --- |
| N#Cc1cc(C(=O)NC2CC2)cc2nc(C(F)(F)F)c(CC3CCC(F)(F)CC3)n12 [Compound 76, 5-Cyano-N-cyclopropyl-3-[(4,4-difluorocyclohexyl)methyl]-2-(trifluoromethyl)imidazo[1,2-a]pyridine-7-carboxamide] | ≤ 100 nM | – |
| CC(C)(C)C(=O)CNC(=O)c1cc(C#N)n2c(CC3CCC(F)(F)CC3)c(C(F)(F)F)nc2c1 [Compound 160, 5-Cyano-3-[(4,4-difluorocyclohexyl)methyl]-N-(3,3-dimethyl-2-oxobutyl)-2-(trifluoromethyl)imidazo[1,2-a]pyridine-7-carboxamide] | ≤ 100 nM | – |
| Cc1cc(CC(=O)Nc2ccccc2N)cc2nc(C(F)(F)F)c(CC3CCC(F)(F)CC3)n12 [Compound 85, N-(2-Aminophenyl)-2-{3-[(4,4-difluorocyclohexyl)methyl]-5-methyl-2-(trifluoromethyl)imidazo[1,2-a]pyridin-7-yl}acetamide] | – | ≤ 100 nM |
| CC(C)(Oc1ccccc1)c1c(C(F)(F)F)nc2cc(C(=O)Nc3ccccc3)ccn12 [Compound 163, 3-(2-Phenoxypropan-2-yl)-N-phenyl-2-(trifluoromethyl)imidazo[1,2-a]pyridine-7-carboxamide] | – | ≤ 100 nM |
| CC(F)(F)c1nc2cc(C(=O)NC3CC4(COC4)C3)c(Cl)cn2c1CC1CCC(F)(F)CC1 [Compound 147, 6-Chloro-3-[(4,4-difluorocyclohexyl)methyl]-2-(1,1-difluoroethyl)-N-(2-oxaspiro[3.3]heptan-6-yl)imidazo[1,2-a]pyridine-7-carboxamide] | ≤ 100 nM | – |
| Cc1cc(C(=O)NC2CCOCC2)cc2nc(C(C)C)c(N(C)C3CCCCC3)n12 [Compound 34, 3-[Cyclohexyl(methyl)amino]-2-isopropyl-5-methyl-N-(tetrahydro-2H-pyran-4-yl)imidazo[1,2-a]pyridine-7-carboxamide] | – | ≤ 100 nM |
| O=C(NC1CCOCC1)c1cc(O)n2c(CC3CCC(F)(F)CC3)c(C(F)(F)F)nc2c1 [Compound 49, 3-[(4,4-Difluorocyclohexyl)methyl]-5-hydroxy-N-(tetrahydro-2H-pyran-4-yl)-2-(trifluoromethyl)imidazo[1,2-a]pyridine-7-carboxamide] | ≤ 100 nM | – |
| O=C(NCC1CC1)c1cc(Cl)n2c(CC3CCC(F)(F)CC3)c(C(F)(F)F)nc2c1 [Compound 77, 5-Chloro-N-(cyclopropylmethyl)-3-[(4,4-difluorocyclohexyl)methyl]-2-(trifluoromethyl)imidazo[1,2-a]pyridine-7-carboxamide] | ≤ 100 nM | – |
| N#Cc1cc(C(=O)NCC2CCOC2)cc2nc(C(F)(F)F)c(CC3CCC(F)(F)CC3)n12 (stereo not drawn) [Compound 3, 5-Cyano-3-[(4,4-difluorocyclohexyl)methyl]-N-[(tetrahydrofuran-3-yl)methyl]-2-(trifluoromethyl)imidazo[1,2-a]pyridine-7-carboxamide] | ≤ 100 nM | – |
| Cc1cc(C(O)c2nc3ccccc3[nH]2)cc2nc(C(F)(F)F)c(CC3CCC(F)(F)CC3)n12 (stereo not drawn) [Compound 112, (1H-Benzo[d]imidazol-2-yl){3-[(4,4-difluorocyclohexyl)methyl]-5-methyl-2-(trifluoromethyl)imidazo[1,2-a]pyridin-7-yl}methanol] | – | ≤ 100 nM |
| O=Cc1cc(C(=O)NC2CCOCC2)cc2nc(C(F)(F)F)c(CC3CCC(F)(F)CC3)n12 [Compound 45, 3-[(4,4-Difluorocyclohexyl)methyl]-5-formyl-N-(tetrahydro-2H-pyran-4-yl)-2-(trifluoromethyl)imidazo[1,2-a]pyridine-7-carboxamide] | ≤ 100 nM | – |
| CC(C)(C)C(=O)NC(=O)c1cc(C#N)n2c(CC3CCC(F)(F)CC3)c(C(F)(F)F)nc2c1 [Compound 203, 5-Cyano-3-[(4,4-difluorocyclohexyl)methyl]-N-pivaloyl-2-(trifluoromethyl)imidazo[1,2-a]pyridine-7-carboxamide] | ≤ 100 nM | – |
